Read-outs that look alike come from different tables or passages of the source.
Experiments:
Assay type in all cases: cell-based
[1] = molecular target: T1, 5-HT2A receptor (Homo sapiens, UniProt P28223); experiment: 5-HT2A Gq dissociation BRET functional assay; details: Table 2; for 5-HT2A BRET Eff %: normalized to % 5-HT stimulation; for EC50: at least three replicate trials
T1 construct: expressed in transfected cells; host or cells: HEK293T

[2] = molecular target: T2, 5-HT2C receptor (Homo sapiens, UniProt P28335); experiment: cell-based; details: Table 2; for EC50: at least three replicate trials, read-out: 5-HT2C BRET EC50; for 5-HT2C BRET Eff %: normalized to % 5-HT stimulation
T2 construct: expressed in transfected cells; host or cells: HEK293T
T2 sequence (P28335 33-458): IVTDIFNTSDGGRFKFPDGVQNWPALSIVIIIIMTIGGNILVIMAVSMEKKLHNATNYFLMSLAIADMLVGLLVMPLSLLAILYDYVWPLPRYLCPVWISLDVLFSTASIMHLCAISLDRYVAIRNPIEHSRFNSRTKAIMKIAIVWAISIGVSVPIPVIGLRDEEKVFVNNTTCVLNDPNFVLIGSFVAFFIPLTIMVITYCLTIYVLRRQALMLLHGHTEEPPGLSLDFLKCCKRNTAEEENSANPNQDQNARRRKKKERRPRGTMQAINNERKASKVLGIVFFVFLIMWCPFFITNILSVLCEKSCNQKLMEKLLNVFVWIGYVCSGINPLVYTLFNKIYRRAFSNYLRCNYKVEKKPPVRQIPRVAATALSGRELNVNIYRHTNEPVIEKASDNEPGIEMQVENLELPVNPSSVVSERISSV

[3] = molecular target: T3, 5-HT2B receptor (Homo sapiens, UniProt P41595); experiment: 5-HT2B Gq dissociation BRET functional assay; details: Table 2; for EC50: at least three replicate trials; for 5-HT2B BRET Eff %: normalized to % 5-HT stimulation
T3 construct: expressed in transfected cells; host or cells: HEK293T
T3 sequence (P41595 whole entry): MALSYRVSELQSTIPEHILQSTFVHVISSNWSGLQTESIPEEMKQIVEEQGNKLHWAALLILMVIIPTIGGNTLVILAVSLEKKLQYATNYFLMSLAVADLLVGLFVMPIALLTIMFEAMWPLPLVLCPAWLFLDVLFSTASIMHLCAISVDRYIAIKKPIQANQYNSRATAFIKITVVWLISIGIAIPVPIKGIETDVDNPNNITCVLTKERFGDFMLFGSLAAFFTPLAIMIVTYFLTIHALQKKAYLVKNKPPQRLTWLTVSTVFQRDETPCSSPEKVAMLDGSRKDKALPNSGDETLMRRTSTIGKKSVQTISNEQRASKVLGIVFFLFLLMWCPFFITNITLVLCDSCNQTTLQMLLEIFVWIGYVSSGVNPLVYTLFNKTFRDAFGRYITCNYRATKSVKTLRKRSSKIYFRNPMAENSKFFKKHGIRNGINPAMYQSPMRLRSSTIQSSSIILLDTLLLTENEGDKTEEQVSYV

T1 sequence (P28223 whole entry): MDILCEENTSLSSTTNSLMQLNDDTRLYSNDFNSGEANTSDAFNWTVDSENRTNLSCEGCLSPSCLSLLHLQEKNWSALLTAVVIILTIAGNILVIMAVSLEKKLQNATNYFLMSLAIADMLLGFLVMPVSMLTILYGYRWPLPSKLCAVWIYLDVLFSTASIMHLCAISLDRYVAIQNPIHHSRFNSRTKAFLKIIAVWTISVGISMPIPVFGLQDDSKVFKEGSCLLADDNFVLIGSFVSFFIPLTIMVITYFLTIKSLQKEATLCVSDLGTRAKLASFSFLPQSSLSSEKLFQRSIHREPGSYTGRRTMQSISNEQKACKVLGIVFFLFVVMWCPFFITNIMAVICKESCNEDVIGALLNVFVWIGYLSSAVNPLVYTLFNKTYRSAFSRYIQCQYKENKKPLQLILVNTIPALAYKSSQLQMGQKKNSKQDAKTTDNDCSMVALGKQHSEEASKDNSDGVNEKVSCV

Row | SMILES | 5-HT2A BRET Eff % [1] [%] | EC50 [2] [nM] | 5-HT2C BRET Eff % [2] [%] | EC50 ([1]; 5-HT2A BRET EC50 (nM)) [nM] | EC50 ([3]; 5-HT2B BRET EC50 (nM)) [nM] | 5-HT2B BRET Eff % [3] [%] | 5-HT2B BRET EC50 (nM) / Eff % [3] | EC50 ([1]; read-out: 5-HT2A BRET EC50) [nM] | EC50 ([3]; read-out: 5-HT2B BRET EC50) [nM]
1 | NCCc1c[nH]c2ccc(O)cc12 [5-hydroxytryptamine (serotonin), 5-hydroxytryptamine, reference compound] | 100 |  |  |  |  |  |  |  | 
2 | COc1cc(C#N)c(F)cc1CCNCc1ccccc1O [Cpd #4] | 99 | 37.5 | 115 | 2.4 | 4090 | 73 |  |  | 
3 | COc1cc(C#N)ccc1CCNCc1ccccc1F [Cpd #6] | 81 | 2120 | 130 | 381 |  |  | Inactive |  | 
4 | COc1cc(C#N)ccc1CCNCc1cccc(F)c1 [Cpd #7] | 84 | 800 | 126 | 133 |  |  | Inactive |  | 
5 | COc1cc(C#N)ccc1CCNCc1ccc(F)cc1 [Cpd #8] | 52 | 8740 | 79 | 13100 |  |  | Inactive |  | 
6 | COc1cc(C#N)ccc1CCNCc1cccc(Cl)c1 [Cpd #13] | 69 | 1840 | 96 | 393 |  |  | Inactive |  | 
7 | COc1cc(C#N)ccc1CCNCc1ccc(Cl)cc1 [Cpd #14] | 40 | 13300 | 74 | 14300 |  |  | Inactive |  | 
8 | COc1ccc(CNCCc2ccc(C#N)cc2OC)cc1 [Cpd #29] | 59 | 924 | 75 | 3950 |  |  | Inactive |  | 
9 | COc1cc(C#N)ccc1CCNC1COc2ccccc21 (stereo not drawn) [Cpd #52] | 69 | 12100 | 125 |  |  |  | Inactive | 1040 | 
10 | COc1cc(C#N)ccc1CCNCc1c(Cl)cccc1Cl [Cpd #58] | 79 | 2170 | 85 | 496 |  |  | Inactive |  | 
11 | COc1cc(C#N)ccc1CCNCc1ccc(F)cc1F [Cpd #59] | 58 | 9930 | 94 | 14100 |  |  | Inactive |  | 
12 | N#Cc1ccc(CCNCc2cccc3ccsc23)c(O)c1 [Cpd #70] | 11 | 5400 | 160 |  |  |  | Inactive | 0.3 | 
13 | N#Cc1ccc(CCNCc2cccc3cc[nH]c23)c(O)c1 [Cpd #71] | 59 | 10700 | 92 |  |  |  | Inactive | 1140 | 
14 | COc1cc(C#N)ccc1CCNCc1cccc2ncn(C)c12 [Cpd #73] | 4 | 0.04 | 7 |  |  |  | Inactive | 73 | 
15 | COc1cc(C#N)ccc1CCN(C)Cc1ccccc1Cl [Cpd #88] | 14 | 310000 | 86 | 0.01 | 4980 | 20 |  |  | 
16 | COc1ccc(CCNCc2ccccc2O)c(OC)c1 [Cpd #96, reference compound] | 95 | 7.2 | 109 | 2.3 |  |  | Inactive |  | 
17 | COc1cc(-c2cnoc2)ccc1CCNCc1ccccc1Cl [Cpd #101] | 65 | 9520 | 116 |  |  |  | Inactive | 270 | 
18 | COc1cc(-c2ncco2)ccc1CCNCc1ccccc1Cl [Cpd #102] | 61 | 1640 | 101 |  |  | 143 |  | 2090 | 5370
19 | COc1cc(-c2ncccn2)ccc1CCNCc1ccccc1Cl [Cpd #104] | 71 | 5690 | 106 |  |  |  | Inactive | 4890 | 
20 | COc1cc(-c2cncnc2)ccc1CCNCc1ccccc1Cl [Cpd #105] | 86 | 1490 | 107 |  |  |  | Inactive | 1610 | 

Reference: patent US20250074871A1, “PHENETHYLAMINES AND METHODS OF PREPARATION THEREOF” (priority 2022, published 2025)
